We go through 5 molecules from patent US20230118577A1, “NEUROACTIVE STEROIDS AND PHARMACEUTICAL COMPOSITION CONTAINING THE SAME” (Brii Biosciences, Inc., priority 2020, published 2023).

Read-outs that look alike come from different tables or passages of the source.

In one experiment the target is T1, GABAA α1β2γ2 (Homo sapiens, UniProt P14867+P47870).
T1 construct: expressed in transfected cells; host or cells: HEK293 expressing the Tetracycline repressor protein
Description: Automated patch clamp electrophysiology (SyncroPatch), PAM mode, GABAA α1β2γ2 cell line. It counts as cell-based. The conditions noted are these: for Emax: maximum fold increase in current relative to Allopregnanolone, GABA EC20 14 μM, read-out: GABAA α1β2γ2 PAM % Emax (to Allo). An excerpt: (§1) Cellular electrophysiology was used to measure the pharmacology properties of the GABA receptor modulators. The GABAA channels are expressed in stable cell lines described herein. The parental cell line used to express the human GABAA channels is the human embryonic kidney (HEK293) cell line expressing the Tetracycline repressor protein to support inducible expression of the target proteins.
(§2) For the GABAA α4β3δ cell line, the α4 and β3 subunits are under control of tetracycline inducible expression system, while the δ subunit is constitutively expressed. For the GABAA α1β2γ2 cell line, the α1 and β2 subunits are under control of tetracycline inducible expression system, whist the γ2 subunit is constitutively expressed.
(§3) Assessment of the compounds against GABAA α1β2γ2 and GABAA α4β3δ was performed using the SyncroPatch automated platform in positive allosteric modulator (PAM) mode. Six concentrations of 20 nM, 62 nM, 185 nM, 555 nM, 1667 nM and 5000 nM were tested across the plate, with a single concentration of compound per well. A minimum of 3 cells were obtained per each concentration of a compound.
(§4) Automated patch clamp-recordings were performed using the SyncroPatch 384PE. The voltage protocol generation and data collection were performed with PatchController384 V1.6.6 and Data Controller V1.6.0. A steady state voltage pulse at −80 mV was applied during the assay.
(§5) The stacked addition protocol was used, in which γ-aminobutyric acid (GABA) was rapidly applied and then washed off from the cell. To test for positive allosteric modulator activity (PAM), first the agonist GABA EC20 (EC20: 10 μM for GABAA α4β3δ channel and 14 μM GABA for the GABAA α1β2γ2 channel) was applied twice (with wash steps in-between) as a control and to show activation reproducibility, followed by a 1-2 minutes pre-incubation of the tested compound and then re-application of GABA EC20 in the presence of a testing compound. Finally, following a further wash step, maximum GABA (10 mM) was applied.
(§6) An Allopregnanolone concentration response was tested as the control PAM on the compound plates. The fold increase was generated using the following equation, (Icomp/Icontrol)−1, where Icomp is the current amplitude in the presence of the compound and Icontrol is the current amplitude in the presence of GABA EC20 alone. This builds an EC50 concentration-response curve, where 0 represents no PAM activity and >0 represents PAM activity.
(§7) A maximum % Emax for each compound is generated using the following equation, (IMaxComp/IAveMaxAllo)*100, where IMaxcomp is the individual maximum fold increase in current for each compound and IAveMaxAllo is the average maximum fold increase generated in the presence of Allopregnanolone. The resultant % Emax values are then averaged. The compound and Allopregnanolone values were obtained from separate cells which were tested in the same compound run. Two GABAA subtypes were tested against each of the compounds as well as the positive control, Allopregnanolone.
Background: The patch-clamp technique gives a direct electrical read-out from membranes.

For another experiment, the target named is T2, GABAA α4β3δ (Homo sapiens, UniProt P28472+P48169).
T2 construct: expressed in transfected cells; host or cells: HEK293 expressing the Tetracycline repressor protein
The experiment can be described thus: Automated patch clamp electrophysiology (SyncroPatch), PAM mode, GABAA α4β3δ cell line. The class given is cell-based. As to conditions: for Emax: maximum fold increase in current relative to Allopregnanolone, read-out: GABAA α4β3δ PAM % Emax (to Allo).
Text: as §1, §2, §3, §4, §5, §6, §7

Where [1] appears, read: PAM mode, HEK293 cells expressing human GABAA α1β2γ2, GABA EC20 14 μM, read-out: GABAA α1β2γ2 PAM EC50.
Where [2] appears, read: PAM mode, HEK293 cells expressing human GABAA α4β3δ, GABA EC20 10 μM, read-out: GABAA α4β3δ PAM EC50.

T1 sequence (P14867 28-456): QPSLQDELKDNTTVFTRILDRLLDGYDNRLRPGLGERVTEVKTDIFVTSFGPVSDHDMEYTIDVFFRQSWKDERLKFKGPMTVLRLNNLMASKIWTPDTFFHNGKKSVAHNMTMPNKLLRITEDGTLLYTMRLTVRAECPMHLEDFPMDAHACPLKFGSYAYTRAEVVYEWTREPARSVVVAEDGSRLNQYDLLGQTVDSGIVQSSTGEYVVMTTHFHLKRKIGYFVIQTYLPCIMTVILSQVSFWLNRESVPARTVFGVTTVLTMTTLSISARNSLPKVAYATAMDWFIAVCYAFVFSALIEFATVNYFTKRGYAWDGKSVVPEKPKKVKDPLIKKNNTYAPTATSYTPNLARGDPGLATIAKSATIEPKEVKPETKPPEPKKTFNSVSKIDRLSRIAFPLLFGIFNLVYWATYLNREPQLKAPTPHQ
T1 sequence (P47870 25-512 limits assumed): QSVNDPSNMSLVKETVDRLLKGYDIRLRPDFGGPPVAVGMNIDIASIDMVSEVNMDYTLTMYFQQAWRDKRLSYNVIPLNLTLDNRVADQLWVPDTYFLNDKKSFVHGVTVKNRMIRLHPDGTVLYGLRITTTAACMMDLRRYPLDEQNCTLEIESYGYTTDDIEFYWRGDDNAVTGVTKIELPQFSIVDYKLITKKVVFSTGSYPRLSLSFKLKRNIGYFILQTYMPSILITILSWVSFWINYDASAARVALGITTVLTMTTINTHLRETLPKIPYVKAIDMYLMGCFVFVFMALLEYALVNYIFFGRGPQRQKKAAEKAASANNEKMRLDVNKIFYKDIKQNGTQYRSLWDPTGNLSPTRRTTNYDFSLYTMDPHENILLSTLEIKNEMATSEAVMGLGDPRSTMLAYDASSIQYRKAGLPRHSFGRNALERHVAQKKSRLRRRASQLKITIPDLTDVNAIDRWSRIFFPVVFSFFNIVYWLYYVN
T1 sequence (P18507 40-475 partner): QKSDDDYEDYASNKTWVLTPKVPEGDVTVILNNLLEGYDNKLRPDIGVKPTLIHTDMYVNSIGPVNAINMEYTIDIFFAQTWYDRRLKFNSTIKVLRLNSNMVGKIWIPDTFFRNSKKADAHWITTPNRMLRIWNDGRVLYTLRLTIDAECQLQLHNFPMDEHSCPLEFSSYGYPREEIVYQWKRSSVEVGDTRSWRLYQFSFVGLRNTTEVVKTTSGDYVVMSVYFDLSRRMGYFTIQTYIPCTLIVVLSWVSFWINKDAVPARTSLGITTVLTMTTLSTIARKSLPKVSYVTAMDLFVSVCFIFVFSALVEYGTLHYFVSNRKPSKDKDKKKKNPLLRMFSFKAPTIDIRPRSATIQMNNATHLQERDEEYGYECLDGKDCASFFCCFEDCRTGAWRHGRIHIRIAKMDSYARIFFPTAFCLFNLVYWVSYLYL
T2 sequence (P48169 36-554): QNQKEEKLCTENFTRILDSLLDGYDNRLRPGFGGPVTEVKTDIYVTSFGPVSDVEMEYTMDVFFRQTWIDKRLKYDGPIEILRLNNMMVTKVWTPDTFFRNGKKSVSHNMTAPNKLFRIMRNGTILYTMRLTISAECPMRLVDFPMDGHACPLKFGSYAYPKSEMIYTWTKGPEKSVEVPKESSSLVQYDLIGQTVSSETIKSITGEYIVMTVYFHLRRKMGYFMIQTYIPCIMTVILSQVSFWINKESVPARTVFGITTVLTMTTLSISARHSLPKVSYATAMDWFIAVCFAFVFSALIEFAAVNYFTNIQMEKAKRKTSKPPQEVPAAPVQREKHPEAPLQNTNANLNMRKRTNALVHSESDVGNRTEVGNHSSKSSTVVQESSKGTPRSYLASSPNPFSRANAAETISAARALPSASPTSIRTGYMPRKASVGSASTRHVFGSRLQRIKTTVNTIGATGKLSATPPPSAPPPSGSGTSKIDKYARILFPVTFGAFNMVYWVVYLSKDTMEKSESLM
T2 sequence (P28472 26-473): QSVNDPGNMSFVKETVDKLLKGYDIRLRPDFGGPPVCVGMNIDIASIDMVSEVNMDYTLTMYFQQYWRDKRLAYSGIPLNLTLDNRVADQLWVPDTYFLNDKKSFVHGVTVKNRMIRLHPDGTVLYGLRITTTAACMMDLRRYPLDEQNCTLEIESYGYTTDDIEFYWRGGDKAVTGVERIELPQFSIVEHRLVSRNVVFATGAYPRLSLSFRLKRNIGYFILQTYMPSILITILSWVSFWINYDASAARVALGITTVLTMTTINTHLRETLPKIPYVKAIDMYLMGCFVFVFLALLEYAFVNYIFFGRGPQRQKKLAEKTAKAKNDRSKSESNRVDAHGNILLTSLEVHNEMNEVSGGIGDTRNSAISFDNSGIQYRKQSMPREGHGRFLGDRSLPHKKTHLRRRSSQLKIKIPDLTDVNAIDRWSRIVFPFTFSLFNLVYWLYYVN
T2 sequence (O14764 17-452 partner limits assumed): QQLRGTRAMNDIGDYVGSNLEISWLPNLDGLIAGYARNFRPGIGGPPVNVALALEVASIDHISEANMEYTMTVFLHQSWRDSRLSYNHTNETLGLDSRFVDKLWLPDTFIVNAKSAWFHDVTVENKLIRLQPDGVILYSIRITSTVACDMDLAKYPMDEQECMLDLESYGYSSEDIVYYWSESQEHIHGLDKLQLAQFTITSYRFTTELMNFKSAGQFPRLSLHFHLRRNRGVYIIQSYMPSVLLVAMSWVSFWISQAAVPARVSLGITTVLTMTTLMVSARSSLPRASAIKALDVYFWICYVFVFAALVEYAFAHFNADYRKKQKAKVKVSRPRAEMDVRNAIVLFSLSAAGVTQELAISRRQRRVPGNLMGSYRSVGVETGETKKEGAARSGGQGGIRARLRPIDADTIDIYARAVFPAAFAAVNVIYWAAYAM

A word on the EC50: it is the concentration that produces a half-maximal response. For orientation: Emax means the greatest response seen or fitted, relative to the assay's reference. Consider `C[C@@]1(O)CC[C@H]2[C@H](CC[C@@H]3[C@@H]2CC[C@]2(C)[C@@H](C4(CC(F)(F)F)COC4)CC[C@@H]32)C1` [Example 20, (3R,5R,8R,9R,10S,13S,14S,17S)-3,13-dimethyl-17-(3-(2,2,2-trifluoroethyl)oxetan-3-yl)-2,4,5,6,7,8,9,10,11,12,14,15,16,17-tetradecahydro-1H-cyclopenta[a]phenanthren-3-ol], for which the EC50 on GABAA α1β2γ2 (setting [1]) and on GABAA α4β3δ (setting [2]) was less than 500 nM throughout. Further, the Emax at GABAA α1β2γ2 (PAM mode) was greater than 90%; at GABAA α4β3δ (PAM mode, GABA EC20 10 μM), greater than 90%.

For `C[C@@]1(O)CC[C@H]2[C@H](CC[C@@H]3[C@@H]2CC[C@]2(C)[C@@H](C4(C5CC5)COC4)CC[C@@H]32)C1` [Example 21, (3R,5R,8R,9R,10S,13S,14S,17S)-17-(3-cyclopropyloxetan-3-yl)-3,13-dimethyl-2,4,5,6,7,8,9,10,11,12,14,15,16,17-tetradecahydro-1H-cyclopenta[a]phenanthren-3-ol], the EC50 on GABAA α1β2γ2 (setting [1]) was 500 to 1000 nM; at GABAA α4β3δ (setting [2]) it was greater than 1500 nM. Moreover, the Emax was greater than 90% on GABAA α1β2γ2 (PAM mode) and greater than 90% on GABAA α4β3δ (PAM mode, GABA EC20 10 μM).

Turning to `C#CC1([C@H]2CC[C@H]3[C@@H]4CC[C@@H]5C[C@](C)(O)CC[C@@H]5[C@H]4CC[C@]23C)COC1` [Example 22, (3R,5R,8R,9R,10S,13S,14S,17S)-17-(3-ethynyloxetan-3-yl)-3,13-dimethyl-2,4,5,6,7,8,9,10,11,12,14,15,16,17-tetradecahydro-1H-cyclopenta[a]phenanthren-3-ol], the results for the EC50 at GABAA α1β2γ2 (setting [1]) and at GABAA α4β3δ (setting [2]) were less than 500 nM and greater than 1500 nM, respectively. The Emax was greater than 90% at GABAA α1β2γ2 (PAM mode) and 50 to 90% at GABAA α4β3δ (PAM mode, GABA EC20 10 μM).

On to `C[C@@]1(O)CC[C@H]2[C@H](CC[C@@H]3[C@@H]2CC[C@]2(C)[C@@H](C4COC4)CC[C@@H]32)C1` [Example 23, (3R,5R,8R,9R,10S,13S,14S,17R)-17-(oxetan-3-yl)-3,13-dimethyl-2,4,5,6,7,8,9,10,11,12,14,15,16,17-tetradecahydro-1H-cyclopenta[a]phenanthren-3-ol], for which the EC50 on GABAA α1β2γ2 (setting [1]) and on GABAA α4β3δ (setting [2]) was less than 500 nM each time. For the same molecule, the Emax is 50 to 90% on GABAA α1β2γ2 (PAM mode) and 50 to 90% at GABAA α4β3δ (PAM mode, GABA EC20 10 μM).

For the molecule `CC(=O)[C@H]1CC[C@H]2[C@@H]3CC[C@H]4C[C@H](O)CC[C@]4(C)[C@H]3CC[C@]12C` [allopregnanolone, 5α-pregnane-3α-ol-20-one, reference compound], the EC50 at GABAA α1β2γ2 and on GABAA α4β3δ was less than 500 nM in each case. Also, the Emax was greater than 90% at GABAA α1β2γ2 (PAM mode) and greater than 90% on GABAA α4β3δ (PAM mode, GABA EC20 10 μM).
